Data: patent US8299055B2, “8-substituted isoquinoline derivative and the use thereof” (Asahi Kasei Pharma Corporation, priority 2008, dated 2012)

Test system: mouse collagen-induced arthritis model
Assay: Mouse collagen-induced arthritis model
Format: in vivo
Method: On Days 0 and 21, […] of chicken cartilage-derived collagen (Nippon Meat Packers, Inc., Japan) in 0.1 mL of complete Freund's adjuvant (Difco Laboratories, Inc., U.S.) was subcutaneously injected to female DBA/1J Jms Slc mice (6- to 8-week-old) (Japan SLC, Japan) to immunize the mice.
Among the compounds of the present invention, a representative test compound (Example compound 1-N-6 or 2-N-100) was orally administered twice daily every day from Day 21 to Day 34 at a dose of 25 or 50 mg/kg (method A) or from Day 21 to Day 29 at a dose of 1, 3, 10, or 30 mg/kg (method B). The solution for administration was prepared by using 0.5% w/v Methylcellulose 400 Solution (Wako Pure Chemical Industries, Ltd.) as a solvent.
After administration of collagen on Day 21, the extent of development of arthritis in the mouse limbs were scored by visually observing each limb periodically according to the clinical scores outlined in Table X-1.
The clinical scores for all four limbs were summed up for each mouse and the mean±standard error (SE) of each treatment group was calculated. Evaluation was performed until the following day of the final administration.

SMILES | toxicity (method A: oral twice daily Day 21 to Day 34, 25 or 50 mg/kg) | onset of arthritis (clinical scores) (method A: oral twice daily Day 21 to Day 34, 25 or 50 mg/kg, FIG. 1) | toxicity (method B: oral twice daily Day 21 to Day 29, 1, 3, 10 or 30 mg/kg) | onset of arthritis (clinical scores) (method B: oral twice daily Day 21 to Day 29, 1, 3, 10 or 30 mg/kg, FIG. 2)
N#Cc1cccc(-c2cc(N3CCNCC3)c3cnccc3c2)c1 [Example 1-N-6] | did not exhibit toxicity | suppressed the onset of arthritis |  | 
Cc1ccc(C(=O)N2CCC(Nc3cc(-c4cccc(C#N)c4)cc4ccncc34)CC2)cn1 [Example 2-N-100] |  |  | did not exhibit toxicity | suppressed the onset of arthritis
